Where a name gives a salt, the structure may show the parent alone. Read-outs that look alike come from different tables or passages of the source.
Legend:
[1] = test system: male CD1 mice; assay: acetic acid-induced writhing assay after sc administration; type: in vivo, mouse; conditions: for ED50: Mus musculus, 0.5 h, read-out: ED50 (95% CI), mice, sc, inhibition of writhing 30 min after drug administration; for ED50 (95% CI): mice, inhibition of writhing 30 min after drug administration
Experimental: Solutions of test compounds were prepared in sterile physiological 0.9% saline and further diluted to working doses in saline solution. Test compounds or saline (control) were administered by sc route in a volume of 10 μL/1 g of body weight. All doses are expressed in terms of salts. Separate groups of mice received the respective dose of compound, and individual mice were only used once for behavioral testing.
Writhing was induced in male CD1 mice by ip injection of a 0.6% acetic acid aqueous solution as described previously.[48],[62] Groups of mice were administered sc different doses of test compound or saline (control), and 5 min prior to testing (25 min after drug or saline), each animal received an ip injection of acetic acid solution. Each mouse was placed in individual transparent Plexiglas chambers, and the number of writhes was counted during a 10 min observation period. […] For the antagonism study, naloxone methiodide was sc co-administered with the respective opioid agonist, and writhing was assessed as described above.
(§1) Data were analyzed and graphically processed using the GraphPad Prism 5.0 Software (GraphPad Prism Software Inc., San Diego, CA). For in vitro assays, inhibition constant (Ki in nM), potency (EC50 in nM), and efficacy (% stimulation) values were determined from concentration–response curves by nonlinear regression analysis. The Ki values were determined by the method of Cheng and Prusoff.[66] In the [^35S]GTPγS binding assays, efficacy was determined relative to the reference full opioid agonists, DAMGO (MOR), DPDPE (DOR), and U69,593 (KOR). In vitro data are presented as mean ± SEM of three to four independent experiments each performed in duplicate. […] Each experimental group included six to seven mice. Data were statistically evaluated using one-way ANOVA with Tukey’s post hoc test for multiple comparisons with significance set at P < 0.05.

[2] = target: T1, KOR (Homo sapiens, UniProt P41145); assay: [35S]GTPγS binding assay, CHO-hKOR membranes; type: biochemical; conditions: for EC50: [35S]GTPγS, CHO human KOR membranes, read-out: KOR EC50; for Emax: relative to reference full agonist U69,593, read-out: KOR % stim.; for functional profile at KOR (full/partial agonist): partial agonist <85% of the response to U69,593
T1 construct: host or cells: CHO (CHO-hKOR)
Experimental: (§2) Efficacies are presented as percentage stimulation relative to the standard full agonists, [D-Ala^2,N-Me-Phe4,Gly-ol^5]enkephalin (DAMGO for MOR),[53] [D-Pen^2,D-Pen^5]enkephalin (DPDPE for DOR)[54] and N-methyl-2-phenyl-N-[(5R,7S,8S)-7-(pyrrolidin-1-yl)-1-oxaspiro[4.5]dec-8-yl]acetamide (U69,593 for KOR).[55]
(§3) Membranes from CHO cells expressing human opioid receptors were prepared in 50 mM Tris-HCl buffer (pH 7.7) according to a previously described procedure.[64] Cells expressing human opioid receptors grown at confluence were removed from the culture plates by scraping, homogenized in 50 mM Tris buffer (pH 7.7), using a Polytron homogenizer, then centrifuged once and washed by an additional centrifugation at 27 000g for 15 min, at 4 °C. The final pellet was resuspended in Tris buffer and stored at −80 °C until use. Protein content of brain and cell membrane preparation homogenates was determined by the method of Bradford using bovine serum albumin as the standard.[65]
(§4) Binding of [^35S]GTPγS to membranes from CHO cells stably expressing the human opioid receptors was conducted according to the published procedures.[49],[64] Cell membranes (5–10 μg) in 20 mM HEPES, 10 mM MgCl2, and 100 mM NaCl (pH 7.4) were incubated with 0.05 nM [^35S]GTPγS, 10 μM GDP, and various concentrations of test compound in a final volume of 1 mL, for 60 min at 25 °C. Nonspecific binding was determined using 10 μM GTPγS, and the basal binding was determined in the absence of test ligand. Samples are filtered over glass Whatman glass GF/B fiber filters and counted as described for binding assays. All experiments were performed in duplicate and repeated at least three times.
as §1

[3] = target: T2, DOR (Homo sapiens, UniProt P41143); assay: [35S]GTPγS binding assay, CHO-hDOR membranes; type: biochemical; conditions: for EC50: [35S]GTPγS, CHO human DOR membranes; for Emax: relative to reference full agonist DPDPE, read-out: DOR % stim.; for increased agonist potency at DOR vs MOR: [35S]GTPγS EC50
T2 construct: host or cells: CHO (CHO-hDOR)
Experimental: as §2, §3, §4, §1

[4] = target: T3, MOR (Homo sapiens, UniProt P35372); assay: [35S]GTPγS binding assay, CHO-hMOR membranes; type: biochemical; conditions: for Emax: relative to reference full agonist DAMGO, read-out: MOR % stim.
T3 construct: host or cells: CHO (CHO-hMOR)
Experimental: as §2, §3, §4, §1

[5] = target: T4, KOR (Cavia porcellus, UniProt P41144); assay: competition radioligand binding, guinea-pig brain membranes, [3H]U69,593; conditions: guinea-pig brain membranes; read-out: opioid receptor binding Ki KOR
T4 construct: Membranes were prepared from Sprague-Dawley rat brains or guinea-pig brains according to the described procedures; tissue Labortierkunde und Laborgenetik, Medizinische Universität Wien; host or cells: guinea-pig brain without cerebella
Experimental: (§5) Competition binding assays using rat brain (MOR and DOR) and guinea-pig brain (KOR) membranes (Table 1) were performed according to published procedures.[44],[49] […] In addition, we have assessed binding at the human opioid receptors stably transfected in Chinese hamster ovary (CHO) cells (Table S1).
(§6) Membranes were prepared from Sprague-Dawley rat brains or guinea-pig brains according to the described procedures.[44],[45] Brains without cerebella were homogenized on ice in 5 vol/wt of ice-cold 50 mM Tris-HCl buffer (pH 7.4) and diluted in 30 vol/wt of the same buffer. After centrifugation at 40 000g for 20 min at 4 °C, the pellets were resuspended in 30 vol/wt of 50 mM Tris-HCl buffer (pH 7.4) and incubated at 37 °C for 30 min. The centrifugation step described above was repeated, and the final pellets were resuspended in 5 vol/wt of 50 mM Tris-HCl buffer (pH 7.4) containing 0.32 M sucrose and stored at −80 °C until use.
(§7) Rat brain membranes were incubated with either [^3H]DAMGO (1 nM, 45 min, 35 °C) or [^3H][Ile^5,6]deltorphin II (0.5 nM, 45 min, 35 °C) for labeling MOR or DOR receptors, respectively. Guinea-pig brain membranes were incubated with [^3H]U69,593 (1 nM, 30 min, 30 °C) for labeling KOR. Binding assays with CHO cell membranes were conducted at 25 °C for 60 min using [^3H]DAMGO (1 nM) or [^3H]diprenorphine (0.2 nM) for labeling MOR or DOR, respectively. Nonspecific binding was determined using 10 μM naloxone (rodent brain) or 1–10 μM of the unlabeled counterpart of each radioligand (CHO cells). Reactions were terminated by rapid filtration through Whatman glass fiber GF/C filters. Filters were washed three times with 5 mL of ice-cold 50 mM Tris-HCl buffer (pH 7.4) using a Brandel M24R cell harvester (Gaithersburg, MD). Radioactivity retained on the filters was counted by liquid scintillation counting using a Beckman Coulter LS6500 (Beckman Coulter Inc., Fullerton, CA). All binding experiments were performed in duplicate and repeated at least three times.
as §1

[6] = target: T5, DOR (Rattus norvegicus, UniProt P33533); assay: competition radioligand binding, rat brain membranes, [3H][Ile5,6]deltorphin II; conditions: rat brain membranes; read-out: opioid receptor binding Ki DOR
T5 construct: Membranes were prepared from Sprague-Dawley rat brains or guinea-pig brains according to the described procedures; tissue Labortierkunde und Laborgenetik, Medizinische Universität Wien; host or cells: Sprague-Dawley rat brain without cerebella
Experimental: as §5, §6, §7, §1

[7] = target: T6, MOR (Rattus norvegicus, UniProt P33535); assay: competition radioligand binding, rat brain membranes, [3H]DAMGO; conditions: rat brain membranes; read-out: opioid receptor binding Ki MOR
T6 construct: Membranes were prepared from Sprague-Dawley rat brains or guinea-pig brains according to the described procedures; tissue Labortierkunde und Laborgenetik, Medizinische Universität Wien; host or cells: Sprague-Dawley rat brain without cerebella
Experimental: as §5, §6, §7, §1

[8] = [35S]GTPγS, CHO human MOR membranes, read-out: MOR EC50

Structure (SMILES) | ED50 [1] [mg/kg] | EC50 [2] [nM] | Emax [2] [%] | EC50 [3] [nM] | Emax [3] [%] | EC50 [4, 8] [nM] | Emax [4] [%] | functional profile at KOR (full/partial agonist) [2] | Ki [5] [nM] | Ki [6] [nM] | Ki [7] [nM] | increased agonist potency at DOR vs MOR [3] | ED50 (95% CI) [1] | EC50 [4] [nM]
CO[C@@]12CCC(=O)[C@@H]3Oc4c(O)ccc5c4[C@@]31CCN(C)[C@@H]2C5 [Compound 1, 14-O-methyloxymorphone, reference compound] | 0.00326 | 116 ± 31 | 77 ± 5 | 37.3 ± 8.5 | 106 ± 1 | – | – | – | – | – | – | – | – | –
CN1CC[C@]23c4c5ccc(O)c4O[C@H]2[C@@H](NCC(=O)O)CC[C@@]3(OCCCc2ccccc2)[C@H]1C5 [Compound 5a] | 0.0361 | – | – | – | – | – | – | – | – | – | – | – | – | –
CN1CC[C@]23c4c5ccc(O)c4O[C@H]2[C@H](NCC(=O)O)CC[C@@]3(OCCCc2ccccc2)[C@H]1C5 [Compound 5b] | 0.0416 | – | – | – | – | – | – | – | – | – | – | – | – | –
CO[C@@]12CC[C@H](N[C@@H](CO)C(=O)O)[C@@H]3Oc4c(O)ccc5c4[C@@]31CCN(C)[C@@H]2C5 [Compound 6a, (2S)-2-[(4,5α-Epoxy-3-hydroxy-14β-methoxy-17-methylmorphinan-6α-yl)amino]-3-hydroxypropionic Acid Dihydrochloride] | 0.0321 | 1210 ± 200 | 44 ± 5.2 | 13.9 ± 1.5 | 101 ± 2 | 1.6 ± 0.59 | 87 ± 5 | – | – | – | – | – | – | –
CO[C@@]12CC[C@@H](N[C@@H](CO)C(=O)O)[C@@H]3Oc4c(O)ccc5c4[C@@]31CCN(C)[C@@H]2C5 [Compound 6b, (2S)-2-[(4,5α-Epoxy-3-hydroxy-14β-methoxy-17-methylmorphinan-6β-yl)amino]-3-hydroxypropionic Acid Dihydrochloride] | – | 201 ± 116 | 88 ± 2 | 6.98 ± 4.24 | 98 ± 1 | 3.56 ± 0.76 | 101 ± 9 | full agonists | – | – | – | – | – | –
CO[C@@]12CC[C@H](N[C@H](C(=O)O)C(C)C)[C@@H]3Oc4c(O)ccc5c4[C@@]31CCN(C)[C@@H]2C5 [Compound 7a, (2S)-2-[(4,5α-Epoxy-3-hydroxy-14β-methoxy-17-methylmorphinan-6α-yl)amino]-3-methylbutyric Acid Dihydrochloride] | – | 462 ± 126 | 51 ± 0.5 | 33.8 ± 8.9 | 91 ± 2 | 10.5 ± 4 | 95 ± 8 | partial agonist | 325 ± 19 | 3.91 ± 0.3 | 3.16 ± 0.25 | – | – | –
CO[C@@]12CC[C@@H](N[C@@H](Cc3ccc(O)cc3)C(=O)O)[C@@H]3Oc4c(O)ccc5c4[C@@]31CCN(C)[C@@H]2C5.Cl.Cl [Compound 9b, (2S)-2-[(4,5α-Epoxy-3-hydroxy-14β-methoxy-17-methylmorphinan-6β-yl)amino]-3-(4-hydroxyphenyl)propionic Acid Dihydrochloride] | – | 774 ± 57 | 60 ± 3 | 6.23 ± 1.03 | 95 ± 0.8 | 24.7 ± 9.8 | 93 ± 7 | – | 186 ± 33 | 3.89 ± 0.64 | 3.2 ± 0.55 | 2–4 times | – | –
CO[C@@]12CC[C@H](N[C@@H](CC(N)=O)C(=O)O)[C@@H]3Oc4c(O)ccc5c4[C@@]31CCN(C)[C@@H]2C5 [Compound 11a, (2S)-3-Carbamoyl-2-[(4,5α-epoxy-3-hydroxy-14β-methoxy-17-methylmorphinan-6α-yl)amino]propionic Acid Dihydrochloride] | < 0.02 | 81.7 ± 12.3 | 67 ± 12 | 9.78 ± 3.32 | 106 ± 6 | 0.83 ± 0.17 | 99 ± 0.2 | – | – | – | – | – | 15.2 (6.89–33.3) μg/kg | < 1
CO[C@@]12CC[C@@H](N[C@@H](CC(N)=O)C(=O)O)[C@@H]3Oc4c(O)ccc5c4[C@@]31CCN(C)[C@@H]2C5 [Compound 11b, (2S)-3-Carbamoyl-2-[(4,5α-epoxy-3-hydroxy-14β-methoxy-17-methylmorphinan-6β-yl)amino]propionic Acid Dihydrochloride] | – | 923 ± 11 | 71 ± 9 | 3.18 ± 0.93 | 88 ± 5 | 2.04 ± 0.44 | 96 ± 14 | – | – | – | – | – | – | –
CO[C@@]12CC[C@H](N[C@@H](CCC(N)=O)C(=O)O)[C@@H]3Oc4c(O)ccc5c4[C@@]31CCN(C)[C@@H]2C5 [Compound 12a, (2S)-4-Carbamoyl-2-[(4,5α-epoxy-3-hydroxy-14β-methoxy-17-methylmorphinan-6α-yl)amino]butanoic Acid Dihydrochloride] | – | 185 ± 30 | 70 ± 3 | 7.8 ± 3.61 | 104 ± 10 | 2.27 ± 0.11 | 90 ± 8 | – | – | – | – | – | – | –
CO[C@@]12CC[C@@H](N[C@@H](CCC(N)=O)C(=O)O)[C@@H]3Oc4c(O)ccc5c4[C@@]31CCN(C)[C@@H]2C5.Cl.Cl [Compound 12b, (2S)-4-Carbamoyl-2-[(4,5α-epoxy-3-hydroxy-14β-methoxy-17-methylmorphinan-6β-yl)amino]butanoic Acid Dihydrochloride] | – | 1410 ± 418 | 63 ± 17 | 3.96 ± 0.07 | 103 ± 9 | 9.54 ± 1.15 | 98 ± 4 | – | – | – | – | 2–4 times | – | –
CN1CC[C@]23c4c5ccc(O)c4O[C@H]2[C@@H](O)C=C[C@H]3[C@H]1C5 [morphine, reference compound] | – | – | – | – | – | – | – | – | – | – | – | – | 437 (249–768) μg/kg | –
